In patent publication US8343892B2 (priority 2003, dated 2013):

Test system: Phytophthora infestans
Assay type: in vivo
Settings: tomato (Marmande), 48 h preventive, assessed 5 days after contamination; lower line = chlorothalonil dose (in mixture or alone)

N#Cc1c(Cl)c(Cl)c(Cl)c(C#N)c1Cl [Chlorothalonil, tetrachloroisophthalonitrile]
ED70, Practical doses for 70% efficacy: dose of chlorothalonil: 16.1 µg/mL
ED90, Practical doses for 90% efficacy: dose of chlorothalonil: 36.7 µg/mL
